Reference: patent publication US9216999B2, “Substituted pyrrolo[2,3-h][1,6]naphthyridines and compositions thereof as JAK inhibitors” (priority 2011, dated 2015)
Read-outs that look alike come from different tables or passages of the source.

Columns and labels:
JAK1 = JAK1 (Homo sapiens (Human), UniProt P23458); assay: JAK1 enzyme assay (Assay Example^b 1)
JAK2 = JAK2 (Homo sapiens (Human), UniProt O60674); assay: JAK2 enzyme assay (Assay Example^b 1)
Tyk2 = Tyk2 (Homo sapiens (Human), UniProt P29597); assay: Tyk2 enzyme assay (Assay Example^b 1)
JAK3 = JAK3 (Homo sapiens (Human), UniProt P52333); assay: JAK3 enzyme assay (Assay Example^b 1)
[1] = IC50 (μM) JAK1, Table^b 78, ATP 100 μM
[2] = IC50 (μM) JAK2, Table^b 79, ATP 100 μM
[3] = IC50 (μM) TYK2, Table^b 80, ATP 100 μM
[4] = IC50 (μM) JAK1, Table^b 80, ATP 100 μM
[5] = IC50 (μM) TYK2, Table^b 79, ATP 100 μM
[6] = IC50 (μM) JAK3, Table^b 78, ATP 100 μM
[7] = IC50 (μM) JAK3, Table^b 80, ATP 100 μM

Sequence of JAK3 (P52333 whole entry): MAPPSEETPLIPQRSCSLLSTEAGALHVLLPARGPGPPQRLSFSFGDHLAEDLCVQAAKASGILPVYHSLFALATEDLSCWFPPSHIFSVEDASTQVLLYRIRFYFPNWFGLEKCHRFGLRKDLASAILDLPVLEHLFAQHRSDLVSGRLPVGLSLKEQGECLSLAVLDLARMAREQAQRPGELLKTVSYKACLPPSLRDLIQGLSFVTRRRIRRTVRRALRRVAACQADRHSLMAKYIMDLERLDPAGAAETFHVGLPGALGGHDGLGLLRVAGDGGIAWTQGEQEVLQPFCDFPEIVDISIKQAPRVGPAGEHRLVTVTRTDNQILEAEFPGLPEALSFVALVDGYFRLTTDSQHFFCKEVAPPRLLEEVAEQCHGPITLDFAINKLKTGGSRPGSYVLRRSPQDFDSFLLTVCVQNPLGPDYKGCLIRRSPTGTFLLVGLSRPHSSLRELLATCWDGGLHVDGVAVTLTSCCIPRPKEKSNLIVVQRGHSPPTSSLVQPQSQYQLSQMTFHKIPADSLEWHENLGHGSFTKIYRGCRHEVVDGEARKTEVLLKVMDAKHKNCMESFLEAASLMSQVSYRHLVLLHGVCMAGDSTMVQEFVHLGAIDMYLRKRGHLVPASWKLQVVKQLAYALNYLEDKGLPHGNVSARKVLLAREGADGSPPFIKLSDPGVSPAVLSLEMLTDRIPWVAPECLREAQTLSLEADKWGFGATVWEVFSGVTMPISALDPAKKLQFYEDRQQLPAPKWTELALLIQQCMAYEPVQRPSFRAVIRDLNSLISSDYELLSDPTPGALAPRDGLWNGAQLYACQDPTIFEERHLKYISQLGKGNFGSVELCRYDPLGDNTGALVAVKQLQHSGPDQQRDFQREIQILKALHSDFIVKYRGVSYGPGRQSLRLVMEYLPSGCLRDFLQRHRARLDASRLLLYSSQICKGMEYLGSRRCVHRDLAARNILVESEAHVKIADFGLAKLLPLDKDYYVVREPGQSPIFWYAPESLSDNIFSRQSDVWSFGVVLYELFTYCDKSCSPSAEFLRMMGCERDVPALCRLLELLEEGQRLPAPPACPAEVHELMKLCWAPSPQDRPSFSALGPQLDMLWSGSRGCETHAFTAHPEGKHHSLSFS
Sequence of Tyk2 (P29597 whole entry): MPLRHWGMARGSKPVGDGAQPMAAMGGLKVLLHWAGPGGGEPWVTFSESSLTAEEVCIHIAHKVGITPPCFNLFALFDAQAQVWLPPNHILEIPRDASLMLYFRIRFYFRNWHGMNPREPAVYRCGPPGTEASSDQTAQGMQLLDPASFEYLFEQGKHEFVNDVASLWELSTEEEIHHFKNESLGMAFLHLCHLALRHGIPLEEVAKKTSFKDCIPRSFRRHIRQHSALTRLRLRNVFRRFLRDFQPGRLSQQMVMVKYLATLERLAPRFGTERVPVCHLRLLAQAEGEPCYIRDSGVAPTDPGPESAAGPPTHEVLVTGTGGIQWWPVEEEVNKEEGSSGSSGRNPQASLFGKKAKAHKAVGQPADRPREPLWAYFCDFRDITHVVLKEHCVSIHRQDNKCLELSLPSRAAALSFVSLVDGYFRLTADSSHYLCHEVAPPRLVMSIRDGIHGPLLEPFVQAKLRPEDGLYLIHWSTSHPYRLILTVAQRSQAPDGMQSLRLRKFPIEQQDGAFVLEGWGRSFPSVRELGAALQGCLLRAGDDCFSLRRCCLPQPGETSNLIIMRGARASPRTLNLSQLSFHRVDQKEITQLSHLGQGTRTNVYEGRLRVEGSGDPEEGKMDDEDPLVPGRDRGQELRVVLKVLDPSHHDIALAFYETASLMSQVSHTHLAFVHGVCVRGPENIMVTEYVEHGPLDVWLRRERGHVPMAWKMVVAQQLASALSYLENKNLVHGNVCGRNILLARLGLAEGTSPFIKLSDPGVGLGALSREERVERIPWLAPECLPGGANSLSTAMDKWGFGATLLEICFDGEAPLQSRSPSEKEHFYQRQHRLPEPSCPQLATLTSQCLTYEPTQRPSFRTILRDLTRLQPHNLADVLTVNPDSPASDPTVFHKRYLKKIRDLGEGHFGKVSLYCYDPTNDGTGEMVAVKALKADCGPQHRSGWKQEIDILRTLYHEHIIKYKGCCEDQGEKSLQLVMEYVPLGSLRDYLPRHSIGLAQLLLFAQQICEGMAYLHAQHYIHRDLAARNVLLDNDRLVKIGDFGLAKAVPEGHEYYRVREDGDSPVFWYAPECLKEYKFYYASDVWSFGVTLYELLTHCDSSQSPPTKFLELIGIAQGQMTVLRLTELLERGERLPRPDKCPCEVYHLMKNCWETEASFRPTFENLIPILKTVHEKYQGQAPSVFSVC

## c1cc2c3c(cnc2[nH]1)COCN3C1CCCCC1 [compound 2]
JAK1; [1]
  IC50: 0.33 µM
JAK2; [2]
  IC50: 1.9 µM

## O=C1NCc2cnc3[nH]ccc3c2N1C1CCN(Cc2cccnc2)CC1 [compound 61]
Tyk2; [3]
  IC50: 3.6 µM

## CC(C#N)n1c(=O)c2cnc3[nH]ccc3c2n(C2CCCCC2)c1=O (racemic) [compound 146]
JAK3; IC50 (μM) JAK3, ATP 100 μM
  IC50: > 1 µM

## O=c1[nH]c(=O)n(C2CCC(CNCC3CC3)CC2)c2c1cnc1[nH]ccc12 (stereo not shown) [compound 117]
JAK1; IC50 (μM) JAK1, ATP 100 μM
  IC50: 0.03 µM
JAK3; IC50 (μM) JAK3, ATP 100 μM
  IC50: > 1 µM

## C[C@@H]1CCN(Cc2ccccc2)C[C@@H]1n1cc(Br)c(=O)c2cnc3[nH]ccc3c21 (racemic) [compound 24]
JAK2; IC50 (μM) JAK2
  IC50: 0.74 µM

## O=c1[nH]c(=O)n(C2CCN(CC3CC3)CC2)c2c1cnc1[nH]ccc12 [compound 91]
JAK3; IC50 (μM) JAK3, ATP 100 μM
  IC50: > 1 µM

## Cc1nc(CN2CCC(n3ccc(=O)c4cnc5[nH]ccc5c43)CC2)cs1 [compound 86]
JAK1; [4]
  IC50: 0.043 µM

## C[C@@H]1CCN(S(=O)(=O)c2cccc(C(F)(F)F)c2)C[C@@H]1n1ccc(=O)c2cnc3[nH]ccc3c21 (racemic) [compound 33]
JAK2; IC50 (μM) JAK2
  IC50: 0.12 µM

## O=c1c2cnc3[nH]ccc3c2n(C2CCCCC2)c(=O)n1CCN1CCOCC1 [compound 142]
JAK3; IC50 (μM) JAK3, ATP 100 μM
  IC50: > 1 µM

## N#CC=CC1CCC(n2c(=O)[nH]c(=O)c3cnc4[nH]ccc4c32)CC1 (stereo not shown) [compound 103]
JAK3; IC50 (μM) JAK3, ATP 100 μM
  IC50: > 1 µM

## O=C1NCc2cnc3[nH]ccc3c2N1C1CCN(Cc2ccc(C(F)(F)F)cc2)CC1 [compound 63]
JAK1; [4]
  IC50: 0.12 µM

## CC1OCN(C2CCCCC2)c2c1cnc1[nH]ccc21 (stereo not shown) [compound 1]
JAK1; [1]
  IC50: 0.38 µM
Tyk2; [5]
  IC50: 4.1 µM
JAK3; [6]
  IC50: 2 µM

## Cc1cn([C@H]2CN(Cc3ccccc3)CC[C@H]2C)c2c(cnc3[nH]ccc32)c1=O (racemic) [compound 23]
JAK1; [4]
  IC50: 0.035 µM

## O=c1ccn(C2CCN(Cc3ccc(Br)o3)CC2)c2c1cnc1[nH]ccc12 [compound 80]
Tyk2; [3]
  IC50: 0.24 µM
JAK3; [7]
  IC50: 0.34 µM
JAK2; IC50 (μM) JAK2, Table^b 80, ATP 100 μM
  IC50: 0.02 µM

## N#CCC1CN(C[C@H]2CC[C@H](n3c(=O)[nH]c(=O)c4cnc5[nH]ccc5c43)CC2)C1 [compound 124]
JAK3; IC50 (μM) JAK3, ATP 100 μM
  IC50: > 1 µM

## C[C@@H]1CCN(C(=O)c2ccccc2C(F)(F)F)C[C@@H]1n1ccc(=O)c2cnc3[nH]ccc3c21 (racemic) [compound 30]
JAK3; [7]
  IC50: > 1 µM

## CCC(C)CN1CCC(n2c(=O)[nH]c(=O)c3cnc4[nH]ccc4c32)CC1 (racemic) [compound 92]
JAK3; IC50 (μM) JAK3, ATP 100 μM
  IC50: > 1 µM

## O=c1[nH]c(=O)n(C2CCN(CCC3CCOCC3)CC2)c2c1cnc1[nH]ccc12 [compound 93]
JAK3; IC50 (μM) JAK3, ATP 100 μM
  IC50: > 1 µM

## O=c1ccn(C2CCN(Cc3cnc(Br)s3)CC2)c2c1cnc1[nH]ccc12 [compound 83]
JAK3; [7]
  IC50: 0.62 µM

## O=c1c2cnc3[nH]ccc3c2n(C2CCCCC2)c(=O)n1CC(F)(F)F [Synthetic Example^b 139, 1-cyclohexyl-3-(2,2,2-trifluoroethyl)-1H-pyrrolo[3′,2′:5,6]pyrido[4,3-d]pyrimidine-2,4(3H,7H)-dione]
JAK1; IC50 (μM) JAK1, ATP 100 μM
  IC50: 0.1 µM
Tyk2; IC50 (μM) TYK2, ATP 100 μM
  IC50: > 1 µM
JAK3; IC50 (μM) JAK3, ATP 100 μM
  IC50: > 1 µM

## C[C@@H]1CCN(C(=O)c2cccc(C(F)(F)F)c2)C[C@@H]1n1ccc(=O)c2cnc3[nH]ccc3c21 (racemic) [compound 31]
JAK3; [7]
  IC50: > 1 µM

## O=c1ccn(C2CCCCC2)c2c1cnc1[nH]cnc12 [compound 20]
JAK1; [1]
  IC50: 0.28 µM
Tyk2; [5]
  IC50: 0.76 µM

## O=c1[nH]c(=O)n(C2CCC(CN(CCO)Cc3ccccc3)CC2)c2c1cnc1[nH]ccc12 (stereo not shown) [compound 121]
JAK3; IC50 (μM) JAK3, ATP 100 μM
  IC50: > 1 µM

## C[C@@H]1CCN(S(=O)(=O)c2ccccc2C#N)C[C@@H]1n1ccc(=O)c2cnc3[nH]ccc3c21 (racemic) [compound 25]
JAK3; [7]
  IC50: 0.07 µM

## O=c1[nH]c(=O)n([C@H]2CC[C@H](CNCC3(O)CCCCC3)CC2)c2c1cnc1[nH]ccc12 [compound 126]
JAK3; IC50 (μM) JAK3, ATP 100 μM
  IC50: > 1 µM

## O=CC1CCC(n2c(=O)[nH]c(=O)c3cnc4[nH]ccc4c32)CC1 (stereo not shown) [compound 133]
JAK1; IC50 (μM) JAK1, ATP 100 μM
  IC50: 0.012 µM
Tyk2; IC50 (μM) TYK2, ATP 100 μM
  IC50: 0.41 µM
JAK3; IC50 (μM) JAK3, ATP 100 μM
  IC50: > 1 µM

## C[C@@H]1CCN(C(=O)OCc2ccccc2)C[C@@H]1n1ccc(=O)c2cnc3[nH]ccc3c21 (racemic) [compound 35]
JAK3; [7]
  IC50: 0.11 µM

## CN(CC(F)(F)F)C[C@H]1CC[C@H](n2c(=O)[nH]c(=O)c3cnc4[nH]ccc4c32)CC1 [Synthetic Example^b 136, 1-(trans-4-{[Methyl(2,2,2-trifluoroethyl)amino]methyl}cyclohexyl)-1H-pyrrolo[3′,2′:5,6]pyrido[4,3-d]pyrimidine-2,4(3H,7H)-dione]
JAK1; IC50 (μM) JAK1, ATP 100 μM
  IC50: 0.0032 µM
JAK3; IC50 (μM) JAK3, ATP 100 μM
  IC50: 0.75 µM

## N#CCC(=O)N(CC(F)(F)F)C[C@H]1CC[C@H](n2c(=O)[nH]c(=O)c3cnc4[nH]ccc4c32)CC1 [Synthetic Example^b 135, 2-Cyano-N-{[trans-4-(2,4-dioxo-2,3,4,7-tetrahydro-1H-pyrrolo[3′,2′:5,6]pyrido[4,3-d]pyrimidin-1-yl)cyclohexyl]methyl}-N-(2,2,2-trifluoroethyl)acetamide]
JAK3; IC50 (μM) JAK3, ATP 100 μM
  IC50: 0.5 µM

## CN(C)CCn1c(=O)c2cnc3[nH]ccc3c2n(C2CCCCC2)c1=O [compound 153]
JAK3; IC50 (μM) JAK3, ATP 100 μM
  IC50: > 1 µM

## O=c1ccn(C2CCN(Cc3ccc(Cl)c(Cl)c3)CC2)c2c1cnc1[nH]ccc12 [compound 75]
JAK3; [7]
  IC50: > 1 µM

## O=C(CC(F)(F)F)N1CCC(N2C(=O)NCc3cnc4[nH]ccc4c32)CC1 [compound 65]
Tyk2; [3]
  IC50: 2.9 µM
JAK3; [7]
  IC50: 9.5 µM

## O=S1(=O)C=CN(C2CCCCC2)c2c1cnc1[nH]ccc21 [compound 12]
JAK1; [1]
  IC50: 0.13 µM
Tyk2; [5]
  IC50: > 1 µM

## O=c1c2cnc3[nH]ccc3c2n(C2CCCCC2)c(=O)n1C1CCNCC1 [compound 154]
JAK3; IC50 (μM) JAK3, ATP 100 μM
  IC50: > 1 µM

## O=C(CC(F)(F)F)N(CC(F)(F)F)C[C@H]1CC[C@H](n2c(=O)[nH]c(=O)c3cnc4[nH]ccc4c32)CC1 [compound 155]
JAK1; IC50 (μM) JAK1, ATP 100 μM
  IC50: 0.0021 µM
JAK2; IC50 (μM) JAK2, ATP 100 μM
  IC50: 0.055 µM

## O=c1ncc2cnc3[nH]ccc3c2n1C1CCCCC1 [compound 18]
Tyk2; [5]
  IC50: 0.25 µM

## C[C@@H]1CCN(C(=O)CC#N)C[C@@H]1N1COCc2cnc3[nH]ccc3c21 (racemic) [compound 16]
JAK1; [1]
  IC50: 0.038 µM
JAK3; [6]
  IC50: 0.11 µM

## CO[C@H]1CC[C@H](n2ccc(=O)c3cnc4[nH]ccc4c32)CC1 [compound 70]
JAK3; [7]
  IC50: > 1 µM

## CN(C)C(=O)Cn1c(=O)c2cnc3[nH]ccc3c2n(C2CCCCC2)c1=O [compound 152]
JAK3; IC50 (μM) JAK3, ATP 100 μM
  IC50: 0.48 µM

## CC1CCN(C(=O)C2CCC(C(C)(C)C)CC2)CC1n1ccc(=O)c2cnc3[nH]ccc3c21 (single isomer, unassigned) [Synthetic Example^b 48b, 1-{1-[4-(tert-Butyl)cyclohexanecarbonyl]-4-methylpiperidin-3-yl}-1H-pyrrolo[2,3-h][1,6]naphthyridin-4(7H)-one]
JAK1; [4]
  IC50: 0.094 µM
Tyk2; read-out: IC50 (μM) TYK2, Table^b 80, ATP 100 μM
  IC50: > 1 µM
JAK3; [7]
  IC50: 0.36 µM

## O=c1[nH]c(=O)n(C2CCN(CCNCC3CC3)CC2)c2c1cnc1[nH]ccc12 [compound 110]
JAK1; IC50 (μM) JAK1, ATP 100 μM
  IC50: 0.42 µM
JAK2; IC50 (μM) JAK2, ATP 100 μM
  IC50: > 1 µM

## CC(CO)(CO)Cn1c(=O)c2cnc3[nH]ccc3c2n(C2CCCCC2)c1=O [compound 151]
JAK3; IC50 (μM) JAK3, ATP 100 μM
  IC50: > 1 µM

## O=C1NCc2cnc3[nH]ccc3c2N1C1CCN(Cc2ccccc2)CC1 [compound 59]
Tyk2; [3]
  IC50: 4.3 µM
JAK3; [7]
  IC50: 2.1 µM

## O=c1ccn(C2CCCCC2)c2c1cnc1[nH]ccc12 [compound 3]
JAK1; [1]
  IC50: 0.017 µM
JAK3; [6]
  IC50: 0.22 µM

## C[C@@H]1CCN(Cc2cccc(C(F)(F)F)c2)C[C@@H]1n1ccc(=O)c2cnc3[nH]ccc3c21 (racemic) [compound 39]
JAK3; [7]
  IC50: 0.18 µM

## C[C@@H]1CCN(S(=O)(=O)CC(F)(F)F)C[C@@H]1n1ccc(=O)c2cnc3[nH]ccc3c21 (racemic) [compound 11]
JAK2; [2]
  IC50: 0.033 µM

## O=c1ccn(C2CCN(Cc3ccccc3)CC2)c2c1cnc1[nH]ccc12 [compound 54]
JAK3; [7]
  IC50: 0.47 µM

## C[C@@H]1CCN(C2CCCC2)C[C@@H]1n1ccc(=O)c2cnc3[nH]ccc3c21 (racemic) [compound 47]
Tyk2; [3]
  IC50: > 1 µM

## CC1CCN(C(=O)C2CCC(C(C)(C)C)CC2)CC1n1ccc(=O)c2cnc3[nH]ccc3c21 (single isomer, unassigned) [Synthetic Example^b 48a, 1-{1-[4-(tert-Butyl)cyclohexanecarbonyl]-4-methylpiperidin-3-yl}-1H-pyrrolo[2,3-h][1,6]naphthyridin-4(7H)-one]
JAK1; [4]
  IC50: 0.14 µM
Tyk2; [3]
  IC50: > 1 µM
JAK3; [7]
  IC50: > 1 µM

## O=c1ccn(C2CCN(Cc3ccc(C(F)(F)F)o3)CC2)c2c1cnc1[nH]ccc12 [compound 71]
JAK3; [7]
  IC50: 0.46 µM

## O=c1[nH]c(=O)n(C2CCN(Cc3ccc(C(F)(F)F)cc3)CC2)c2c1cnc1[nH]ccc12 [compound 52]
JAK3; [7]
  IC50: > 1 µM

## O=c1[nH]c(=O)n([C@H]2CC[C@H](CN3CC[C@@H](O)C3)CC2)c2c1cnc1[nH]ccc12 [compound 112]
JAK1; IC50 (μM) JAK1, ATP 100 μM
  IC50: 0.0026 µM

## O=c1ccn(C2CCN(Cc3ccc(Br)s3)CC2)c2c1cnc1[nH]ccc12 [compound 81]
JAK3; [7]
  IC50: 0.031 µM

## N#CCC[C@H]1CC[C@H](n2c(=O)[nH]c(=O)c3cnc4[nH]ccc4c32)CC1 [Synthetic Example^b 134, 3-[trans-4-(2,4-Dioxo-2,3,4,7-tetrahydro-1H-pyrrolo[3′,2′:5,6]pyrido[4,3-d]pyrimidin-1-yl)cyclohexyl]propanenitrile]
JAK1; IC50 (μM) JAK1, ATP 100 μM
  IC50: 0.002 µM
Tyk2; IC50 (μM) TYK2, ATP 100 μM
  IC50: 0.032 µM
JAK3; IC50 (μM) JAK3, ATP 100 μM
  IC50: 0.81 µM

## N#Cc1ccc(CN2CCC(N3C(=O)NCc4cnc5[nH]ccc5c43)CC2)cc1 [compound 62]
Tyk2; [3]
  IC50: > 1 µM
JAK3; [7]
  IC50: > 1 µM

## O=c1ccn(C2CCN(Cc3ccc4[nH]ccc4c3)CC2)c2c1cnc1[nH]ccc12 [compound 85]
JAK3; [7]
  IC50: > 1 µM
